Assay [1] addresses T1, Human CARM1 (PRMT4) (Homo sapiens, UniProt Q86X55).
T1 construct: Flag-CARM1-His was eluted with 200 ug/ml FLAG peptide in buffer A; made in house; host or cells: HEK 293F cells infected with recombinant baculovirus (pFastBacMam)
T1 sequence (Q86X55 1-585 isoform Q86X55-1): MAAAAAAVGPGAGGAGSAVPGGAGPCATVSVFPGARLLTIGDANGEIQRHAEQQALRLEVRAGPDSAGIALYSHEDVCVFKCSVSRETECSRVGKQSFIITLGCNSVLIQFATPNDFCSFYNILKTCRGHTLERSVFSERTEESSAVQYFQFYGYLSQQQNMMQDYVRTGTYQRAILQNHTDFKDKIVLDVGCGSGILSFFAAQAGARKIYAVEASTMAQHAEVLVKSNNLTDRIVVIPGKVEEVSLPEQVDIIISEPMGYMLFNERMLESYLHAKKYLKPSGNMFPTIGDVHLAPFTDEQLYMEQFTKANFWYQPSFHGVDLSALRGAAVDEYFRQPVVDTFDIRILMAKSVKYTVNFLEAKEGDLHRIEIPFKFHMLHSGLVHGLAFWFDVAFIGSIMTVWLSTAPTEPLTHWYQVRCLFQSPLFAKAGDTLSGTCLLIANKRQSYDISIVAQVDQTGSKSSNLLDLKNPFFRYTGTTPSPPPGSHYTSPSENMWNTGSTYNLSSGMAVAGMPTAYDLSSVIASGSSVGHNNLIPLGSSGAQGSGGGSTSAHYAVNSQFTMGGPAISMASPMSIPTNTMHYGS
As to the kind of experiment: CARM1 enzyme assay on peptide substrates (3H-SAM Flashplate). Conditions: Biochemical assay; CARM1 0.25 nM, 3H-SAM 30 nM, peptide 250 nM; read-out: Biochem IC50. From the text: S-adenosylmethionine (SAM), S-adenosylhomocysteine (SAH), bicine, Tween20, dimethylsulfoxide (DMSO), bovine skin gelatin (BSG), sodium butyrate and Tris(2-carboxyethyl)phosphine hydrochloride solution (TCEP) were purchased from Sigma-Aldrich at the highest level of purity possible. ^3H-SAM was purchase from American Radiolabeled Chemicals with a specific activity of 80 Ci/mmol. 384-well streptavidin Flashplates were purchased from PerkinElmer.
Peptide representative of human histone H3 residues 16-30 was synthesized with an N-terminal linker-affinity tag motif and a C-terminal amide cap by 21st Century Biochemicals. […] The sequence was Biot-Ahx-[…]-amide and contained a monomethylated arginine at position 26 (SEQ ID NO.:1).
The gene sequence encoding isoform1 containing a deletion of amino acids 539-561 was amplified subsequently and subcloned into pFastBacMam (Viva Biotech).
Recombinant baculovirus were generated according to Bac-to-Bac kit instructions (Life Technologies). Protein over-expression was accomplished by infecting exponentially growing HEK 293F cell culture at 1.3×10^6 cell/ml with virus (MOI=10) in the presence of 8 mM sodium butyrate. Infections were carried out at 37° C. for 48 hours, harvested by centrifugation, and stored at −80° C. for purification.
Column was washed with 500 mM NaCl in buffer A and Flag-CARM1-His was eluted with 200 ug/ml FLAG peptide in buffer A. Pooled fractions were dialyzed in 20 mM Tris, 150 mM NaCl, 5% glycerol and 1 mM DTT, pH 7.8.
The assays were all performed in a buffer consisting of 20 mM Bicine (pH=7.6), 1 mM TCEP, 0.005% BSG, and 0.002% Tween 20, prepared on the day of use. Compounds in 100% DMSO (1 ul) were spotted into a polypropylene 384-well V-bottom plates (Greiner) using a Platemate Plus outfitted with a 384-channel head (Thermo Scientific). DMSO (1 ul) was added to Columns 11, 12, 23, 24, rows A-H for the maximum signal control and 1 ul of SAH, a known product and inhibitor of CARM1, was added to columns 11, 12, 23, 24, rows I-P for the minimum signal control. A cocktail (40 ul) containing the CARM1 enzyme was added by Multidrop Combi (Thermo-Fisher). The compounds were allowed to incubate with CARM1 for 30 min at room temperature, then a cocktail (10 ul) containing ^3H-SAM and peptide was added to initiate the reaction (final volume=51 ul). The final concentrations of the components were as follows: CARM1 was 0.25 nM, ^3H-SAM was 30 nM, peptide was 250 nM, SAH in the minimum signal control wells was 1 mM, and the DMSO concentration was 2%. The assays were stopped by the addition of non-radiolabeled SAM (10 ul) to a final concentration of 300 uM, which dilutes the ^3H-SAM to a level where its incorporation into the peptide substrate is no longer detectable. 50 ul of the reaction in the 384-well polypropylene plate was then transferred to a 384-well Flashplate and the biotinylated peptides were allowed to bind to the streptavidin surface for at least 1 hour before being washed once with 0.1% Tween20 in a Biotek ELx405 plate washer. The plates were then read in a PerkinElmer TopCount plate reader to measure the quantity of ^3H-labeled peptide bound to the Flashplate surface, measured as disintegrations per minute (dpm) or alternatively, referred to as counts per minute (cpm).
where dpm=disintegrations per minute, cmpd=signal in assay well, and min and max are the respective minimum and maximum signal controls.
where top and bottom are the normally allowed to float, but may be fixed at 100 or 0 respectively in a 3-parameter fit. The Hill Coefficient normally allowed to float but may also be fixed at 1 in a 3-parameter fit. Y is the % inhibition and X is the compound concentration.

For assay [2], the system named is asymmetric di-methyl PABP1 in RKO cells. As to the kind of experiment: RKO methylation assay: In Cell Western (ICW) for asymmetric di-methyl PABP1 (PABP1me2a). As to conditions: Cellular-based (PABP1me2a) ICW (In Cell Western) assay. From the text: RKO adherent cells were purchased from ATCC (American Type Culture Collection), Manassas, Va., USA. DMEM/Glutamax medium, penicillin-streptomycin, heat inactivated fetal bovine serum, 0.05% trypsin and D-PBS were purchased from Life Technologies, Grand Island, N.Y., USA. Odyssey blocking buffer, 800CW goat anti-rabbit IgG (H+L) antibody, and Licor Odyssey infrared scanner were purchased from Licor Biosciences, Lincoln, Nebr., USA. Asymmetric di-methyl PABP1 antibody was purchased from Cell Signaling Technology, Danvers, Mass., USA. Methanol was purchased from VWR, Franklin, Mass., USA. 10% Tween 20 was purchased from KPL, Inc., Gaithersburg, Md., USA. Paraformaldehyde (PFA) was purchased from EM Sciences. DRAQ5 was purchased from Biostatus Limited, Leicestershire, UK.
RKO adherent cells were maintained in growth medium (DMEM/Glutamax medium supplemented with 10% v/v heat inactivated fetal bovine serum and 100 units/mL penicillin-streptomycin) and cultured at 37° C. under 5% CO2.
Cell treatment, In Cell Western (ICW) for detection of asymmetric di-methyl PABP1 and DNA content: RKO cells were seeded in assay medium at a concentration of 30,000 cells per mL to a poly-D-lysine coated 384 well culture plate (BD Biosciences 356697) with 50 μL per well. Compound (100 nL) from a 96-well source plate was added directly to 384 well cell plate. Plates were incubated at 37° C., 5% CO2 for 48 hours. After two days of incubation, plates were brought to room temperature outside of the incubator for ten minutes and blotted on paper towels to remove cell media. Cells were fixed for 20 minutes at room temperature by adding 50 ul of 8% PFA followed by aspiration of supernatant with the Biotek EL406 plate washer. Cells were then permeabilized by addition of 50 μL of ice cold 100% methanol directly to each well and incubated for 30 min at room temperature. After 30 min, plates were transferred to a Biotek EL406 plate washer and washed 2 times with 100 μL per well of wash buffer (1×PBS). Next 60 μL per well of Odyssey blocking buffer (Odyssey Buffer with 0.1% Tween 20 (v/v)) were added to each plate and incubated 1 hour at room temperature. Blocking buffer was removed and 20 μL per well of primary antibody was added (asymmetric-methyl PABP1) diluted 1:400 in Odyssey buffer with 0.1% Tween 20 (v/v)) and plates were incubated overnight (16 hours) at 4° C. Plates were washed 5 times with 100 μL per well of wash buffer. Next 20 μL per well of secondary antibody was added (1:800 800CW goat anti-rabbit IgG (H+L) antibody, 1:2000 DRAQ5 in Odyssey buffer with 0.1% Tween 20 (v/v)) and incubated for 1 hour at room temperature. The plates were washed 5 times with 100 μL per well wash buffer then 2 times with 100 μL per well of water. Plates were allowed to dry at room temperature then imaged on the Licor Odyssey machine which measures integrated intensity at 700 nm and 800 nm wavelengths. Both 700 and 800 channels were scanned.
First, the ratio for each well was determined by:
Each plate included fourteen control wells of DMSO only treatment (minimum inhibition) as well as fourteen control wells for maximum inhibition treated with 20 μM of a reference compound. The average of the ratio values for each control type was calculated and used to determine the percent […] for each test well in the plate. Reference compound was serially diluted three-fold in DMSO for a total of nine test concentrations, beginning at 20 μM.
Percent inhibition was determined and IC50 curves were generated using triplicate wells per concentration of compound.

Some results are limits rather than exact numbers.

Take `CNC[C@@H](O)COc1ccc(Cl)c(-c2nc(-c3c(C)noc3C)c(Cl)c(N3Cc4cnn(C)c4C3)n2)c1` [Example 11]: the IC50 – broadly, the concentration that inhibits the measured activity by half – was 60.7 nM in assay [1] and more than 20000 nM in assay [2] (Homo sapiens, RKO, 48 h). For `CNC[C@@H](O)COc1ccc(Cl)c(-c2nc(-c3c(C)noc3C)c(C)c(N3Cc4c(C)nn(C(C)C)c4C3)n2)c1` [Example 12] the same measures were 4.1 nM and 81 nM.

With `CNC[C@@H](O)COc1ccc(Cl)c(-c2nc(-c3c(C)noc3C)c(C)c(N3Cc4c(C)nn(CC(F)(F)F)c4C3)n2)c1` [Example 13], the half-maximal inhibitory concentration (IC50) was 3.6 nM in assay [1] and 74 nM in assay [2] (Homo sapiens, RKO, 48 h).

For the molecule `CNC[C@@H](O)COc1ccc(Cl)c(-c2nc(-c3c(C)noc3C)c(C)c(N3Cc4cc(C(F)(F)F)cnc4C3)n2)c1` [Example 14], the concentration for half-maximal inhibition (IC50) in assay [1] was determined as 2.2 nM; in assay [2] (Homo sapiens, RKO, 48 h), 44 nM. In the same order, the values of `CNC[C@@H](O)COc1ccc(F)c(-c2nc(-c3c(C)noc3C)c(C)c(N3Cc4cn(C5CC5)nc4C3)n2)c1` [Example 15] are 1.9 nM and 140 nM. In the same order, the values of `CNC[C@@H](O)COc1ccc(F)c(-c2nc(-c3c(C)noc3C)c(C)c(N3Cc4cnn(C5CC5)c4C3)n2)c1` [Example 16] are 2.1 nM and 56 nM. For `CNC[C@@H](O)COc1ccc(F)c(-c2nc(-c3c(C)noc3C)c(C)c(N3Cc4cn(CC(F)(F)F)nc4C3)n2)c1` [Example 17] the same measures were 2.4 nM and 162 nM.

As for `CNC[C@@H](O)COc1ccc(F)c(-c2nc(-c3c(C)noc3C)c(C)c(N3Cc4cnn(CC(F)(F)F)c4C3)n2)c1` [Example 18], the IC50 in assay [1] amounted to 3.1 nM; in assay [2] (Homo sapiens, RKO, 48 h) it was 69 nM. On to `CNC[C@@H](O)COc1ccc(Cl)c(-c2nc(-c3c(C)noc3C)c(C)c(N3CC4(CCC(F)CC4)C3)n2)c1` [Example 20], for which the IC50 is 7.4 nM in assay [1] and 125 nM in assay [2] (Homo sapiens, RKO, 48 h). In the same order, the values of `CNC[C@@H](O)COc1ccc(C(F)(F)F)c(-c2nc(-c3c(C)noc3C)c(C)c(N3CC4(CCOCC4)C3)n2)c1` [Example 21] are 16.6 nM and 179 nM.

In the case of `CNC[C@@H](O)COc1ccc(C(F)(F)F)c(-c2nc(-c3c(C)noc3C)c(C)c(N3Cc4cn(C(C)C)nc4C3)n2)c1` [Example 22], the IC50 was 6.3 nM in assay [1] and 181 nM in assay [2] (Homo sapiens, RKO, 48 h). As for `CNC[C@@H](O)COc1ccc(C(F)(F)F)c(-c2nc(-c3c(C)noc3C)c(C)c(N3Cc4cnn(C(C)C)c4C3)n2)c1` [Example 23], the concentration for half-maximal inhibition (IC50) in assay [1] was found to be 4.7 nM; in assay [2] (Homo sapiens, RKO, 48 h), 111 nM. For `CNC[C@@H](O)COc1ccc(C(F)(F)F)c(-c2nc(-c3c(C)noc3C)c(C)c(N3Cc4cccnc4C3)n2)c1` [Example 24] the same measures were 5.4 nM and 188 nM.

For the molecule `CNC[C@@H](O)COc1ccc(Cl)c(-c2nc(-c3c(C)noc3C)c(C)c(N3CCC4(C3)OCCO4)n2)c1` [Example 25], the IC50 was found to be 5.6 nM in assay [1] and 452 nM in assay [2] (Homo sapiens, RKO, 48 h). For `CNC[C@@H](O)COc1ccc(Cl)c(-c2nc(-c3c(C)noc3C)c(C)c(N3Cc4cnn(CC(F)F)c4C3)n2)c1` [Example 26] the same measures were 3.4 nM and 66 nM. For `CNC[C@@H](O)COc1ccc(Cl)c(-c2nc(-c3c(C)noc3C)c(C)c(N3Cc4cn(CC(F)F)nc4C3)n2)c1` [Example 27] the same measures were 3.7 nM and 115 nM. Regarding `CNC[C@@H](O)COc1ccc(Cl)c(-c2nc(-c3c(C)noc3C)c(C)c(N3Cc4cnn(C(C)C)c4C3)n2)c1` [Example 28], the IC50 in assay [1] worked out at 3.2 nM; in assay [2] (Homo sapiens, RKO, 48 h), 41 nM. Regarding `CNC[C@H](O)COc1ccc(Cl)c(-c2nc(-c3c(C)noc3C)c(C)c(N3CC4(CCN(C(=O)OC)CC4)C3)n2)c1` [Example 248], it took 294 nM to reach half-maximal inhibition in assay [2] (Homo sapiens, RKO, 48 h) (IC50). Same read-out and setting: in the case of `CNC[C@@H](O)COc1ccc(Cl)c(-c2nc(-c3c(C)noc3C)c(C)c(N3CC4(CCN(C(=O)OC)CC4)C3)n2)c1` [Example 261] it was 53.9 nM. For `CNC[C@@H](O)COc1ccc(Cl)c(-c2nc(-c3c(C)noc3C)c(C)c(N3CC4(CCN(C(=O)OC)CC4)C3)n2)c1` [Example 292], the half-maximal inhibitory concentration (IC50) in assay [2] (48 hours) stood at 66.7 nM.

Source of the values: US20170305922A1, “CARM1 INHIBITORS AND USES THEREOF” (Epizyme, Inc., priority 2014, published 2017).
